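A five-concentration, 48-hour dose response in 96-well plates underlies each endpoint, interpolated linearly between surrounding concentrations. GI50 is the concentration that inhibits growth by half.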 Activity calls are given as the source filed them. Cut-off read from the data, not from the text of the source: active = GI50 up to about 1.1 µM and inactive = higher.
Legend:
Assay in all cases: growth of human tumour cells (NCI), 48 h
DLD-1 = tested on: DLD-1
HOP-18 = tested on: HOP-18
KM-20L2 = tested on: KM-20L2
LXFL 529 = tested on: LXFL 529
M19-MEL = tested on: M19-MEL
RXF 631 = tested on: RXF 631
SNB-78 = tested on: SNB-78
XF498 = tested on: XF498

Measured: GI50

NC(=O)C(=O)CC(=O)c1ccccc1NC1=CC(=O)C(=O)c2ccccc21
inactive: DLD-1 42.3 µM | HOP-18 > 100 µM | KM-20L2 > 100 µM | LXFL 529 50.6 µM | M19-MEL 7.74 µM | RXF 631 > 100 µM | SNB-78 58.6 µM | XF498 > 100 µM

Cc1cc(N(CCC#N)CCC#N)ccc1/N=N/c1ccccc1[N+](=O)[O-]
inactive: DLD-1 > 100 µM | HOP-18 > 100 µM | LXFL 529 > 100 µM | M19-MEL > 100 µM | RXF 631 > 100 µM | SNB-78 > 100 µM | XF498 26.8 µM

Oc1cc(-c2cccs2)nc2cc3c(cc12)OCO3
inactive: DLD-1 5.13 µM | HOP-18 > 100 µM | KM-20L2 15.9 µM | LXFL 529 4.79 µM | M19-MEL 3.34 µM | RXF 631 28.2 µM | SNB-78 7.36 µM | XF498 3.54 µM

CCOC(=O)C1C(=O)c2ccccc2CN1Cc1ccccc1 (stereo not drawn)
inactive: DLD-1 > 100 µM | HOP-18 > 100 µM | KM-20L2 > 100 µM | LXFL 529 > 100 µM | M19-MEL > 100 µM | RXF 631 > 100 µM | SNB-78 > 100 µM | XF498 > 100 µM

COc1cc(C2=NN(C)C(c3ccc([N+](=O)[O-])o3)C2)cc(OC)c1OC (stereo not drawn)
inactive: DLD-1 48.4 µM | HOP-18 > 100 µM | KM-20L2 > 100 µM | LXFL 529 38.5 µM | M19-MEL 29.8 µM | RXF 631 51.5 µM | SNB-78 > 100 µM

CC1=C(C(=O)Nc2ccc(C)cc2)C(c2cccc([N+](=O)[O-])c2)C(C(=O)Nc2ccc(C)cc2)=C(C)N1
inactive: DLD-1 31.6 µM | HOP-18 14.1 µM | KM-20L2 19.4 µM | LXFL 529 27.7 µM | M19-MEL 20.8 µM | RXF 631 17.2 µM | SNB-78 27.4 µM | XF498 17.8 µM

CCCCCCCCSC(=O)NCCCC
inactive: DLD-1 35.8 µM | HOP-18 94.6 µM | KM-20L2 23.7 µM | LXFL 529 37.8 µM | M19-MEL 42.1 µM | RXF 631 39.4 µM | XF498 21.4 µM

CS(=O)(=O)OCCn1cnc2nc(NC(=O)c3ccccc3)[nH]c(=O)c21
inactive: DLD-1 > 100 µM | HOP-18 > 100 µM | KM-20L2 > 100 µM | LXFL 529 > 100 µM | M19-MEL > 100 µM | RXF 631 > 100 µM | SNB-78 > 100 µM

COc1c(OC(C)=O)cc2c(OC(C)=O)c1CC(C)CC(OC)C(O)C(C)/C=C(\C)C(OC(N)=O)C(OC)/C=C\C=C(/C)C(=O)N2 (stereo not drawn)
inactive: DLD-1 > 49.8 µM | HOP-18 > 100 µM | KM-20L2 > 62.1 µM | LXFL 529 49 µM | M19-MEL > 76.4 µM | RXF 631 > 100 µM | SNB-78 > 100 µM | XF498 > 90.4 µM

CC1=C(C(=O)Nc2ccc([N+](=O)[O-])cc2)C(c2ccccc2O)C(C(=O)Nc2ccc([N+](=O)[O-])cc2)=C(C)N1
inactive: DLD-1 18.5 µM | KM-20L2 14.5 µM | LXFL 529 19.1 µM | M19-MEL 20.5 µM | RXF 631 15.4 µM | SNB-78 30.5 µM | XF498 13.6 µM

CCOCc1cc(=O)c2cc3c(cc2o1)OC(C)(C)CC3
inactive: DLD-1 > 100 µM | HOP-18 > 100 µM | KM-20L2 > 100 µM | LXFL 529 92.7 µM | M19-MEL > 100 µM | RXF 631 > 100 µM | SNB-78 > 100 µM | XF498 > 100 µM

Reference: ChEMBL document CHEMBL1201862, “PubChem BioAssay data set” (2004)
